According to patent US20150185224A1, “[…] CANCER RESPONSIVENESS TO BCG” (MEMORIAL SLOAN-KETTERING CANCER CENTER, priority 2012, published 2015):

Experiments:
Assay type in all cases: cell-based, human
[1] = system: J82, T24, and UM-UC-3 bladder cancer cell lines
MGH-U3 = system: MGH-U3
VMCUB-3 = system: VMCUB-3
UM-UC-3 = system: UM-UC-3
J82 = system: J82
T24 = system: T24
[2] = system: MGH-U4 transfected with PTEN shRNA
[3] = system: VMCUB-3 transfected with H-ras (G12V)

COc1ccc2c(c1)c(C1=C(c3c[nH]c4ccccc34)C(=O)NC1=O)cn2CCCN(C)C [Gö-6983]
effect on BCG uptake [1]: not inhibited

C[C@@H](N)[C@H]1CC[C@H](C(=O)Nc2ccncc2)CC1 [Y-27632]
effect on BCG uptake [1]: did not have a significant effect

PTEN shRNA (CCGGCCACAGCTAGAACTTATCAAACTCGAGTTTGATAAGTTCTAGCTGT)
increase in uptake of BCG compared to non-targeting shRNA control (MGH-U3): approximately 2 fold
increase in uptake of BCG compared to non-targeting shRNA control (VMCUB-3): not seen

Cc1ccc2c(c1)C(=O)C1(O)CCN(c3ccccc3)C1=N2 (stereo not shown) [blebbistatin]
effect on BCG uptake [1]: not inhibited

O=c1c(-c2ccc(O)cc2)coc2cc(O)cc(O)c12 [genistein]
effect on BCG uptake (UM-UC-3): not
effect on BCG uptake (J82): significantly inhibited
effect on BCG uptake (T24): not

Oc1ccc2ccccc2c1SSc1c(O)ccc2ccccc12 [IPA-3]
effect on the increase in BCG uptake after PTEN knockdown [2]: completely abrogated the increase in BCG uptake
effect on increased BCG uptake in a cell line with activated Ras [3]: inhibited increased BCG uptake
